# Reference: patent US6376747B1, “Plant-derived map kinase kinase” (Her Majesty the Queen in right of Canada as represented by …, priority 1999, dated 2002)
# Read-outs that look alike come from different tables or passages of the source.
# B1: GST-tMEK2^WT (recombinant glutathione-S-transferase fusion of wild type tomato cv. Bonny Best MAP kinase kinase tMEK2) (protein)
# chain: MKKGSFAPNLKLSLPPPDEVALSKFLTESGTFKDGDLLVNRDGVRIVSQSEVAAPSVIQPSDNQLCLADFEAVKVIGKGNGGIVRLVQHKWTGQFFALKVIQMNIDESMRKHIAQELRINQSSQCPYVVICYQSFFDNGAISLILEYMDGGSLADFLKKVKTIPERFLAVICKQVLKGLWYLHHEKHIIHRDLKPSNLLINHRGDVKITDFGVSAVLASTSGLANTFVGTYNYMSPERISGGAYDYKSDIWSLGLVLLECATGHFPYKPPEGDEGWVNVYELMETIVDQPEPCAPPDQFSPQFCSFISACVQKHQKDRLSANDLMSHPFITMYDDQDIDLGSYFTSAGPPLATLTEL
# B2: tMEK2^WT: wild type MAPKK gene tMEK2 isolated from tomato cv. Bonny Best, expressed from tCUPΔ promoter (protein)
# chain: B1 chain
# modifications: left off: a dimerising Fc or GST
# Assays:
# [1] = test system: tMEK2^MUT-induced gene activation (PR1b1, PR3, Twi1, ER5); assay: Effect of MAPK inhibitors on tMEK2^MUT-induced gene activation in tomato protoplasts; assay type: cell-based, Tomato (Lycopersicon esculentum cv Bonny Best); conditions: for effect on all four genes previously activated by tMEK2^MUT: inhibitor at 1 μM in protoplast incubation buffer, genes PR1b1, PR3, Twi1, ER5 (FIG. 6); for effect on tMEK2^MUT-activated PR3 and ER5 genes / effect on tMEK2^MUT-activated PRlbl or Twi1 genes: 350 nM for SB 202190, 1 μM for SB 203580 in protoplast incubation buffer (FIG. 6)
# Protocol: Kinase inhibitors at the concentration of 1 μM for staurosporine, 350 nM for SB 202190 and 1 μM for PD 98059, SB 203580 and SB 202474 were included in the proteoplast incubation buffer.
# The protoplasts were resuspended in electroporation buffer containing 150 mM MgCl2 and 0.4 M mannitol at a density of 1×10^6 protoplasts/ml and co-electroporated with […] of pTZ19 carrying tMEK2 gene and pJD300 carrying luciferase gene in a total volume of 500 μl as described by Leckie (1994) with some modifications. Electroporation was performed at 200 volts and 100 μF (Gene Pulser II, Bio-Rad). Protoplasts were then allowed to recover on ice in the dark for 10 min followed by centrifugation at 500 g for 5 min. After removal of the supernatant, the protoplast pellet, with about 500 μl of buffer, was supplemented with another 500 μl protoplast incubation buffer. Protoplasts were incubated in the dark at 30° C. for 24 hr.
# (§1) Kinase inhibitors (CalBiochem, San Diego, Calif.) at the concentration of 1 μM for staurosporine, 350 nM for SB 202190 and 1 μM for PD 98059, SB 203580 and SB 202474, when applicable, were included in the protoplast incubation buffer.
# RT-PCR was as described above. The number of PCR cycles corresponded to the high end of the range in which a linear increase in products could be detected (generally 14-16 cycles were used). Reaction products were separated on 1.0% agarose gels. Southern blot analysis was used to estimate levels of specific amplified products. Equivalence of cDNA in different samples was verified using PCR reactions for actin. Primers were designed for PCR according to published sequences for tomato PR-lbl, chitinase, Twit, ER5 and actin (Tornero et al., 1997; Danhash et al., 1993; O'Donnell et al., 1998; Zegzoutti et al. 1997; Moniz de Sa and Drouin, 1996).
# To study divergence of the signal pathways downstream of tMEK2 the influence of […] expression in tomato protoplasts was examined in the presence of a broad protein kinase inhibitor (staurosporine) and inhibitors specific to the p38 class MAPK (SB 202190 or SB 203580). Staurosporine inhibited all four genes that were previously activated by tMEK2^MUT; whereas, inhibitors of p38 class MAPK inhibited the PR3 and ER5 genes but not PRlbl or Twi1. […] The results, shown in FIG. 6, are consistent with the divergence of signal pathway downstream of tMEK2. One of these pathways could include a p38 class MAPK.
# [2] = test system: tomato leaf mesophyll protoplasts; assay: Protoplast viability in the presence of kinase inhibitors; assay type: cell-based, Tomato (Lycopersicon esculentum cv Bonny Best); conditions: 1 μM staurosporine, 350 nM SB 202190, 1 μM PD 98059, SB 203580 and SB 202474; data not shown
# Protocol: as §1
# [3] = test system: myelin basic protein
# [4] = target: myelin basic protein; remark: listed apart in the source
# [5] = test system: ER5 gene; assay: Tomato protoplast transient expression, quantitative RT-PCR of wound-inducible gene ER5; assay type: cell-based, Tomato (Lycopersicon esculentum cv Bonny Best); conditions: transient expression in tomato protoplasts, quantitative RT-PCR (FIG. 5b)
# Protocol: Tomato (Lycopersicon esculentum cv Bonny Best) were grown at 80% relative humidity in peat soil in growth cabinets programmed for 16 hr days at 25° C. and 8 hr nights at 22° C. Light intensity was controlled at 25 pE m-2 S-1 emitted from “cool white” fluorescent lamps (Philip Canada, Scarborough, Ontario). The youngest fully expanded leaves were surface sterilized for 5 min in 4% sodium hypochlorite and rinsed three times with sterile water. The lower epidermis was gently rubbed with Carborundum, rinsed with sterile water and leaf fragments of ca. 1 cm^2 were floated with exposed surface facing an enzyme solution containing 0.15% macerozyme R10 (Yakult Honsha Co., Japan), 0.3% Cellulase “Onozuka” Rio (Yakult Honsha Co., Japan), 0.4 M sucrose in K3 medium (Maliga et. al., 1973). After overnight incubation at 30° C., the enzyme-protoplast mixture was filtered through a 100 μm nylon sieve, centrifuged at 500 g for 5 min. and floated protoplasts were collected and washed twice with W5 medium (Maliga et.al., 1973). The protoplasts were kept on ice in W5 medium for 2 hr before transformation. […]
# (§2) RT-PCR was as described above. The number of PCR cycles corresponded to the high end of the range in which a linear increase in products could be detected (generally 14-16 cycles were used). […]
# [6] = test system: PR1b1, PR3 (chitinase) and Twi1 genes; assay: Tomato protoplast transient expression, quantitative RT-PCR of pathogenesis-related genes; assay type: cell-based, Tomato (Lycopersicon esculentum cv Bonny Best); conditions: transient expression driven by tCUPΔ promoter after electroporation, 24 hr incubation, quantitative RT-PCR (FIG. 4)
# Description: To examine the effects of tMEK2^WT and tMEK2^MUT on the activation of pathogenesis-related (PR) or other pathogen-inducible genes a tomato protoplast transient expression system was developed. Chimeric genes, tCUPΔ-tMEK2^WT-nos and tCUPΔ-tMEK2^MUT-nos, were constructed using the storing constitutive promoter, tCUPΔ, which was derived from the tCUP promoter as by modification of the mRNA leader sequence described above. After electroporation, transient expression of potential target genes was detected by quantitative RT-PCR. The genes analysed included PRlbl, which is activated by tomato mosaic virus (Tornero et al., 1997); PR3 (chitinase), which is activated during an incompatible C. fulvam-tomato interaction (Danhash et al., 1993); and Twi, which is a pathogen- and would-inducible gene recently identified in tomato (O'Donnell, et al., 1998).
# Tomato (Lycopersicon esculentum cv Bonny Best) were grown at 80% relative humidity in peat soil in growth cabinets programmed for 16 hr days at 25° C. and 8 hr nights at 22° C. Light intensity was controlled at 25 pE m-2 S-1 emitted from “cool white” fluorescent lamps (Philip Canada, Scarborough, Ontario). […]
# as §2
molecule,measurement,setting,value
COc1cccc(-c2cc(=O)c3ccccc3o2)c1N [PD 98059],effect on all four genes previously activated by tMEK2^MUT,[1],no effects
CCc1nc(-c2ccc(OC)cc2)[nH]c1-c1ccncc1 [SB202474],effect on all four genes previously activated by tMEK2^MUT,[1],no effects
same,change of protoplast viability,[2],did not change
Oc1ccc(-c2nc(-c3ccc(F)cc3)c(-c3ccncc3)[nH]2)cc1 [SB 202190],effect on tMEK2^MUT-activated PR3 and ER5 genes,[1],inhibited
same,effect on tMEK2^MUT-activated PRlbl or Twi1 genes,[1],not
C[S+]([O-])c1ccc(-c2nc(-c3ccc(F)cc3)c(-c3ccncc3)[nH]2)cc1 (centres unmarked) [SB 203580],effect on tMEK2^MUT-activated PR3 and ER5 genes,[1],inhibited
same,effect on tMEK2^MUT-activated PRlbl or Twi1 genes,[1],not
same,change of protoplast viability,[2],did not change
"CN[C@@H]1C[C@H]2O[C@@](C)([C@@H]1OC)n1c3ccccc3c3c4c(c5c6ccccc6n2c5c31)C(=O)NC4 [Staurosporine, staurosporine]",effect on all four genes previously activated by tMEK2^MUT,[1],inhibited
same,change of protoplast viability,[2],did not change
GST-tMEK2^MUT (recombinant glutathione-S-transferase fusion of tMEK2 with serine221 and threonine226 replaced with aspartic acid),"substrate phosphorylation (in vitro kinase assay, SDS-PAGE, autoradiography)",[3],Both the wild type and mutant forms of the tMEK2 enzyme phosphorylated myelin basic protein (MPB) in vitro
B1,"substrate phosphorylation (in vitro kinase assay, SDS-PAGE, autoradiography)",[4],Both the wild type and mutant forms of the tMEK2 enzyme phosphorylated myelin basic protein (MPB) in vitro
B2,activation of ER5 gene,[5],did not
same,"activation of tomato PRlbl, chitinase and Twil genes",[6],no effect
